Results: patent US20190032104A1, “RAPID ANTIMICROBIAL SUSCEPTIBILITY TESTING USING HIGH-SENSITIVITY DIRECT DETECTION METHODS” (T2 Biosystems, Inc., priority 2016, published 2019)

Key:
S. aureus isolate [1] = test: growth on chromogenic media (e.g., CHROMAGAR MRSA); assay type: cell-based; conditions: Example 3
Protocol: (§1) A blood sample is obtained from a subject suspected to be suffering from bacteremia. A portion of the blood sample is used to inoculate a blood culture bottle (e.g., a BD BACTEC™ aerobic blood culture bottle). The blood culture bottles are incubated as recommended by the manufacturer. In parallel, an aliquot of the blood sample obtained from the patient is subjected to a T2MR-based detection method, for example, the method described in Example 22 of WO 2012/054639 in conjunction with a T2Dx® device. In this example, the T2MR-based method identifies S. aureus as being present in the blood sample within 3 hours from the start of the assay.
(§2) Next, based on the identification of S. aureus in the blood sample, the blood culture bottle is sampled by lysis filtration or lysis centrifugation followed by plating of the cell pellet on to chromogenic media (e.g., CHROMAGAR™ MRSA (Chromagar)) or directly on to an agar-based antimicrobial gradient test (e.g., an ETEST®) in order to test whether the S. aureus isolate from the subject's blood is sensitive to oxacillin, vancomycin, trimethoprim-sulfamethoxazole (BACTRIM™), doxycycline, daptomycin, and linezolid. Additionally, T2MR-based real-time PCR is performed as described, for example, in Example 19 of WO 2012/054639, is used to determine the expression level of antibiotic resistance markers such as mecA. […]

Candida albicans = test: administration to the subject with Candidemia (Candida albicans); assay type: in vivo, human
S. aureus = test: administration to the subject with bacteremia (S. aureus); assay type: in vivo, human
S. aureus isolate [2] = test: T2MR-based AST with direct cell detection by vancomycin-conjugated magnetic nanoparticles; conditions: media with pre-determined levels of agent, Example 6
Protocol: as §1, with “In one such example, a blood” for “A blood”
Based on the T2MR-based detection and identification of S. aureus in the subject's blood, a subsequent blood draw is taken directly to media that contain either no antimicrobial agents or pre-determined levels of oxacillin, vancomycin, trimethoprim-sulfamethoxazole (BACTRIM™), doxycycline, daptomycin, or linezolid. Aliquots are taken from these media at time intervals, and the aliquots are subjected to T2MR-based direct detection of S. aureus cells, as described, for example, in Example 4 of International Patent Publication No. WO 2012/129281. S. aureus cells are detected by labeling with magnetic nanoparticles. […]

S. aureus isolate [3] = test: agar-based antimicrobial gradient test (e.g., ETEST); assay type: cell-based; conditions: S. aureus isolate from subject's blood, Example 3
Protocol: as §1, §2

Candida glabrata = test: administration to the subject with Candidemia (Candida glabrata); assay type: in vivo, human; conditions: appropriate dose, subject with Candidemia (C. glabrata), Example 4
C. glabrata isolate = test: T2MR-based AST, real-time PCR of housekeeping gene as proxy for growth; assay type: cell-based, Candida glabrata; conditions: media with pre-determined levels of agent, Example 4
Protocol: A blood sample is obtained from a subject suspected to be suffering from Candidemia. The blood sample obtained from the patient is subjected to a T2MR-based detection method, for example, the method described in Example 22 of WO 2012/054639 in conjunction with a T2Dx® device. Briefly, PCR is performed using a forward primer that includes the oligonucleotide sequence 5′-GGCATGCCTGTTTGAGCGTC-3′ (SEQ ID NO: 13) and a reverse primer that includes the oligonucleotide sequence 5′-GCTTATTGATATGCTTAAGTTCAGCGGGT-3′ (SEQ ID NO: 14). Magnetic particles conjugated individually to the capture probes described in Table 1 are used to test for the presence of Candida albicans, Candida glabrata, Candida krusei, Candida parapsilosis, and Candida tropicalis. In this example, Candida glabrata is identified as being present in the subject's blood sample within 3 h from the start of the assay.
Based on the T2MR-based detection and identification of Candida glabrata in the subject's blood, a subsequent blood draw is taken directly to media that contain either no antimicrobial agents or pre-determined levels of fluconazole, itraconazole, amphotericin B, or caspofungin. […]

Candida albicans isolate = test: AST testing of isolated colonies, agar-based AST method (e.g., ETEST) or full panel AST device (e.g., VITEK 2); assay type: cell-based; conditions: Candida albicans isolate from subject's blood, Example 2
Protocol: as §1, with “Candidemia.” for “bacteremia.”, “as” for “the method”, “1 above.” for “22 of WO 2012/054639 in conjunction with a T2Dx® device.”, “Candida albicans” for “S. aureus”, “sample.” for “sample within 3 hours from the start of the assay.”
Next, based on the identification of Candida albicans in the blood sample, the blood culture bottle is sampled by lysis filtration or lysis centrifugation followed by plating of the cell pellet on to Samouraud Glucose media, thereby encouraging growth of Candida albicans and early growth of the isolated colonies. These colonies are subjected to AST testing, either using an agar-based AST method (e.g., ETEST®) or a full panel AST device (e.g., VITEK® 2). Several appropriate anti-fungal drugs are tested, e.g., fluconazole, itraconazole, amphotericin B, micafungin, voriconazole, and caspofungin.

C. albicans isolate = test: T2MR-based AST, real-time PCR of housekeeping gene as proxy for growth; assay type: cell-based, Candida albicans; conditions: media with pre-determined levels of agent, Example 5
Protocol: A blood sample is obtained from a subject suspected to be suffering from Candidemia. The blood sample obtained from the patient is subjected to a T2MR-based detection method, for example, as described above in Example 4. In this example, Candida albicans is identified as being present in the subject's blood sample within 3 h from the start of the assay.
Based on the T2MR-based detection and identification of Candida albicans in the subject's blood, a subsequent blood draw is taken directly to media that contain either no antimicrobial agents or pre-determined levels of antimicrobial agents such as fluconazole, itraconazole, amphotericin B, and caspofungin. Aliquots are taken from these media at time intervals, and the aliquots are subjected to T2MR-based real-time PCR is performed as described, for example, in Example 19 of WO 2012/054639, to detect the expression level of the multiple drug resistance gene MDR1 as well as a housekeeping gene such as beta-actin (ACT1) as a proxy for growth of the C. albicans isolate in the media. […] A growth curve is made by plotting the T2 signal over time.

## COc1cccc(OC)c1C(=O)N[C@@H]1C(=O)N2[C@@H]1SC(C)(C)[C@@H]2C(=O)O [methicillin]
S. aureus isolate [1]
  antimicrobial resistance of the isolate, based on the color of the colonies: resistant

## C[C@@H]1[C@H](O)[C@@H](C)/C=C/C=C/C=C/C=C/C=C/C=C/C=C/[C@H](O[C@@H]2O[C@H](C)[C@@H](O)[C@H](N)[C@@H]2O)C[C@@H]2O[C@](O)(C[C@@H](O)C[C@@H](O)[C@H](O)CC[C@@H](O)C[C@@H](O)CC(=O)O[C@H]1C)C[C@H](O)[C@H]2C(=O)O [amphotericin B]
Candida albicans; MDR1 expression elevated after fluconazole, therapy switched, Example 5
  treatment outcome in the subject after switch from fluconazole: successful in treating the subject

## CN[C@H](CC(C)C)C(=O)N[C@H]1C(=O)N[C@@H](CC(N)=O)C(=O)N[C@H]2C(=O)N[C@H]3C(=O)N[C@H](C(=O)N[C@H](C(=O)O)c4cc(O)cc(O)c4-c4cc3ccc4O)[C@H](O)c3ccc(c(Cl)c3)Oc3cc2cc(c3O[C@@H]2O[C@H](CO)[C@@H](O)[C@H](O)[C@H]2O[C@H]2C[C@](C)(N)[C@H](O)[C@H](C)O2)Oc2ccc(cc2Cl)[C@H]1O [vancomycin]
S. aureus
  treatment outcome in the subject: treating the subject's bacteremia
S. aureus isolate [2]
  antimicrobial susceptibility of the isolate, growth curve of T2 signal over time: particularly sensitive

## trimethoprim-sulfamethoxazole
S. aureus isolate [3]
  antimicrobial susceptibility of the isolate: sensitive
S. aureus
  treatment outcome in the subject: treating the bacteremia

## OC(Cn1cncn1)(Cn1cncn1)c1ccc(F)cc1F [fluconazole]
Candida glabrata
  treatment outcome in the subject: treating the subject's Candidemia
C. glabrata isolate
  antimicrobial susceptibility of the isolate, growth curve of T2 signal over time: particularly sensitive
Candida albicans; appropriate dose, subject with Candidemia (C. albicans)
  treatment outcome in the subject: treating the subject's Candidemia
Candida albicans isolate
  antimicrobial susceptibility of the isolate: particularly sensitive
C. albicans isolate
  antimicrobial susceptibility of the isolate, growth curve of T2 signal over time: particularly sensitive
